Data reported in patent publication US20070299079A1, “4-AMINO-PYRIDO[3,2-e]PYRAZINES, THEIR USE AS INHIBITORS OF PHOSPHODIESTERASE 10, AND PROCESSES FOR PREPARING THEM” (priority 2006, published 2007).
Where two headings read alike, the source gives them in different places.

Assays:
[1] = test system: MK-801-induced hyperactivity and stereotyped sniffing; assay: MK-801-induced hyperactivity and stereotyped sniffing, animal model of psychosis; type: in vivo, rat; conditions: female Wistar rats, p.o. 30 min prior to test, MK-801 0.1 mg/kg i.p.; for Dose from which MK-801-induced hyperactivity is significantly reversed: activity recorded 1 h; for Dose from which MK-801-induced stereotyped sniffing is significantly reversed: sniffing scored 1 h
Method: Female Wistar rats (Crl: (WI) BR, Charles River, Sulzfeld, Germany) weighing 150 to 180 g were used for the MK-801-induced psychosis. Animals were housed under standard conditions in groups of five on a 12 h light/dark cycle (light on at 0600 h) with ad libitum access to food (Pellets, ssniff M/R 15, Spezialdiät GmbH, Soest/Westfalen) and water.
MK-801 (dizocilpine, MW 337.37) was obtained by Tocris, distributed by Biotrend Chemikalien GmbH, Köln, Germany.
Hydroxyethylcellulose was solved in distilled water.
MK-801 was dissolved in saline so that an administration volume of 0.5 ml/100 g was reached. The suspensions and solution were placed on a magnetic stirrer before and during dosing procedures.
The behaviour induced by the NMDA antagonist MK-801 is generally accepted as a rat model of psychosis. MK-801 induces stereotyped sniffing and hyperactivity in rats after intraperitoneal administration.
Locomotor activity of the rats was recorded by the MotiTest Apparatus (TSE, Bad Homburg, Germany). The test area consisted of a squared arena (45×45 cm) with protective plexiglass walls (20 cm of height) where rats could freely move. Horizontal movements were recorded by 32 infrared photocells arranged along the bottom of each wall of the arena. Activity [sec] was measured by the computer program “ActiMot” (TSE, Bad Homburg, Germany).
Stereotyped sniffing was scored by the experimenter every five minutes for one hour (12 intervals) according to the method described by Andiné et al. (1999). The scores of the 12 intervals were summed up at the end of the experiment.
The day of experiment the female rats were placed in the laboratory and received the test compound or vehicle at the appropriate time prior to test. MK-801 0.1 mg/kg was intraperitoneally administered 10 minutes prior to test.
At the beginning of the test the rats were placed in the centre of the squared arena of the MotiTest apparatus. Behaviour of the rats was recorded for one hour. After each run animals were removed and the boxes thoroughly cleaned and dried.
Results were analysed by one way analysis of variance (ANOVA). Tukey test was used for individual comparison. P<0.05 was regarded as significant.
MK-801 at 0.1 mg/kg i.p. was administered 10 min before testing. […] Activity and stereotyped sniffing was recorded for 1 h. Co=control without MK-801 stimulation, Cs=control with MK-801 stimulation. Significant to MK-801 stimulated control (=Cs): * p<0.05, *** p<0.001.

PDE10 from pig striatum [2] = biological target: T1, PDE10 from pig striatum (Sus scrofa, UniProt A0A287B941)
Method: (§1) For the enzymatic testing of PDE10 activity 0.5 g of the isolated and frozen striatum was homogenised in 10 ml 50 mM Tris/Mg-buffer at 4° C. and centrifuged for one hour at 100000 g. The supernatant is called the cytosolic fraction and was removed and stored on ice. The pellet was resuspended in the same buffer, but containing 1% Triton and incubated for 45 min at 4° C. Both fractions were independently applied onto a 5 ml Hi Trap™ QHP column at the Äkta-FPLC. After washing the columns the bound PDE protein was eluted with an increasing sodium chloride gradient (0 mM-500 mM sodium chloride) in 50 mM Tris/Mg-buffer at 4° C. for the cytosolic fraction and in the presence of 1% Triton for the membrane fraction. […] The fractions with PDE10-activity were pooled and frozen in aliquots until use at −20° C.
(§2) PDE10 activity was determined in a one step procedure in microtiterplates. […] Nonspecific activity was tested without the enzyme. The reaction was initiated by addition of the substrate solution and was carried out at 37° C. for 30 minutes. Enzymatic activity was stopped by addition of 25 μl YSi—SPA-beads (Amersham-Pharmacia). One hour later the mixture was measured in a liquid scintillation counter for microtiterplates (Microbeta Trilux). To pipette the incubation mixture a robot Biomek (Fa. Beckman) is used. […] For determination of IC50 values the Hill-plot, 2-parameter-model, was used.

PDE10 from rat striatum = biological target: T2, PDE10 from rat striatum (Rattus norvegicus, UniProt Q9QYJ6); assay: Inhibition of PDE10 from rat striatum; type: biochemical
T2 construct: 0.5 g of the isolated and frozen striatum was homogenised; from tissue; host or cells: striatum of male Wistar rats, anion-exchange FPLC fractions
T2 sequence (Q9QYJ6 1-794): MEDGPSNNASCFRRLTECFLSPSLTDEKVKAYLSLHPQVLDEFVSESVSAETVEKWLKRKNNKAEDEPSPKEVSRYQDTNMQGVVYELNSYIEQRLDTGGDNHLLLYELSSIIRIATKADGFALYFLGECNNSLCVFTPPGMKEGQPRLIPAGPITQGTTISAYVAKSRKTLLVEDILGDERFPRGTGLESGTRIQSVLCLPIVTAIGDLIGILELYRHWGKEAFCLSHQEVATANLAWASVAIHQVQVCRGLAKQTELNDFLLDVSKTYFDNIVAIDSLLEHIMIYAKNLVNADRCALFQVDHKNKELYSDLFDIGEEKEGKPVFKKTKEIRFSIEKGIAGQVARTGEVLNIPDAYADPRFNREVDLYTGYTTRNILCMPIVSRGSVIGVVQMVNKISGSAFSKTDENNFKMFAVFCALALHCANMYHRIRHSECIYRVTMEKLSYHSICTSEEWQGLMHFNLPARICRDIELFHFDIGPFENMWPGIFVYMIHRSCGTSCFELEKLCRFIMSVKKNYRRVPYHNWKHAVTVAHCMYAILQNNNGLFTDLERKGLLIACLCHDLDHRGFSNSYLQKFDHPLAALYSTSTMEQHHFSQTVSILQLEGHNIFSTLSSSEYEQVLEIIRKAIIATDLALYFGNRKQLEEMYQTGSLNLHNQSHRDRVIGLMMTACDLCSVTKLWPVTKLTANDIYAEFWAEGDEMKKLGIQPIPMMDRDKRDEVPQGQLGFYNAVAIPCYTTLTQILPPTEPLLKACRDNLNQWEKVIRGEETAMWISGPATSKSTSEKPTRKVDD
Method: Phosphodiesterase isoenzyme 10 (PDE10) activity was determined in preparations of rat, pig and guinea pig striatum respectively. Striatum from male Wistar rats (180-200 g), male hybrid pigs (150 kg) and male guinea pigs (CRL (HA), 500 g) respectively were collected and frozen at −70° C.
For the enzymatic testing of PDE10 activity 0.5 g of the isolated and frozen striatum was homogenised in 10 ml 50 mM Tris/Mg-buffer at 4° C. and centrifuged for one hour at 100000 g.
Nonspecific activity was tested without the enzyme. […] For determination of IC50 values the Hill-plot, 2-parameter-model, was used.

PDE10 from pig striatum [3] = biological target: T1, PDE10 from pig striatum; assay: Inhibition of PDE10 from pig striatum; conditions: read-out: Km value of the substrate for PDE10 from pig striatum
Method: as §1, §2

| Molecule | melting point [°C] | other results |
| --- | --- | --- |
| 4-amino-1-(2-chloro-phenyl)-8-methoxy-3-methyl-imidazo[1,5-a]pyrido[3,2-e]pyrazine [Example 11] |  | Dose from which MK-801-induced hyperactivity is significantly reversed [1]: ≥ 0.5 mg/kg; Dose from which MK-801-induced stereotyped sniffing is significantly reversed [1]: ≥ 0.5 mg/kg |
| 4-amino-8-methoxy-3-methyl-1-propyl-imidazo[1,5-a]pyrido[3,2-e]pyrazine [Example 1] |  | Dose from which MK-801-induced hyperactivity is significantly reversed [1]: ≥ 10 mg/kg; Dose from which MK-801-induced stereotyped sniffing is significantly reversed [1]: ≥ 10 mg/kg |
| 8-methoxy-3-methyl-1-propyl-4-(1,2,4-triazol-1-yl)-imidazo[1,5-a]pyrido[3,2-e]pyrazine [Example 33] |  | IC50 (PDE10 from pig striatum [2]): 0.025 µM |
| 8-methoxy-3-methyl-1-propyl-4-(pyrazol-1-yl)-imidazo[1,5-a]pyrido[3,2-e]pyrazine hydro chloride [Example 30] |  | IC50 (PDE10 from pig striatum [2]): 0.155 µM |
| 8-methoxy-3-methyl-1-propyl-4-pyrrolidino-imidazo[1,5-a]pyrido[3,2-e]pyrazine [Example 26] |  | IC50 (PDE10 from pig striatum [2]): 0.137 µM |
| 8-methoxy-3-methyl-4-(2-methyl-imidazol-1-yl)-1-propyl-imidazo[1,5-a]pyrido[3,2-e]pyrazine [Example 34] |  | IC50 (PDE10 from pig striatum [2]): 0.395 µM |
| 8-methoxy-3-methyl-4-piperidino-1-propyl-imidazo[1,5-a]pyrido[3,2-e]pyrazine [Example 27] |  | IC50 (PDE10 from pig striatum [2]): 0.302 µM |
| CON1C=C2C=NC3=C(N(CCC(F)(F)F)CC(C)=C3N)N2C1 [Example 8, 4-amino-8-methoxy-3-methyl-1-(3,3,3-trifluoropropyl)-imidazo[1,5-a]pyrido[3,2-e]pyrazine] | 273 to 276 |  |
| CCCN1CC(C)=C(N(C)C)C2=C1N1CN(OC)C=C1C=N2 [Example 19, 4-(N,N-dimethyl-amino)-8-methoxy-3-methyl-1-propyl-imidazo[1,5-a]pyrido[3,2-e]pyrazine] | 93 to 95 |  |
| CCCCNC1=C(C)CN(CC)C2=C1N=CC1=CN(OC)CN12 [Example 20, 4-(N-butyl-amino)-1-ethyl-8-methoxy-3-methyl-imidazo[1,5-a]pyrido[3,2-e]pyrazine] | 62 to 65 |  |
| CCN1CC(C)=C(NCc2ccccc2)C2=C1N1CN(OC)C=C1C=N2 [Example 21, 4-(N-benzyl-amino)-1-ethyl-8-methoxy-3-methyl-imidazo[1,5-a]pyrido[3,2-e]pyrazine] | 127 to 128 |  |
| CCCN1CC(C)=C(NC(C)=O)C2=C1N1CN(OC)C=C1C=N2 [Example 38, 4-(N-acetyl-amino)-8-methoxy-3-methyl-1-propyl-imidazo[1,5-a]pyrido[3,2-e]pyrazine] | 210 to 213 |  |
| CCCN1CC(C)=C(N(C(C)=O)C(C)=O)C2=C1N1CN(OC)C=C1C=N2 [Example 39, 4-(N,N-diacetyl-amino)-8-methoxy-3-methyl-1-propyl-imidazo[1,5-a]pyrido[3,2-e]pyrazine] | 135 to 138 |  |
| COc1ccc2nc(Cl)c3cnc(C(C)C)n3c2n1 [Intermediate A14] |  | IC50 (PDE10 from rat striatum; rat striatum preparation, 0.1 μM [3H]-cAMP, 37° C., 30 minutes, read-out: Inhibition of PDE10 from rat IC50): 0.237 µM |
| COc1ccc(Cc2nccc3cc(OC)c(OC)cc23)cc1OC [Papaverine, reference compound] |  | IC50 (PDE10 from rat striatum): 0.142 µM |
| Nc1nc2c(ncn2[C@@H]2O[C@@H]3COP(=O)(O)O[C@H]3[C@H]2O)c(=O)[nH]1 [cGMP] |  | Km (PDE10 from rat striatum; substrate Km, rat striatum): 1.8 µM; Km (PDE10 from pig striatum [3]): 2.2 µM |

More lines, main results first:

| melting point [°C] | Molecule | other results |
| --- | --- | --- |
| 224 to 227 | CCN1CC(C)=C(N2CCN(c3ccccc3)CC2)C2=C1N1CN(OC)C=C1C=N2 |  |
| 252 to 253 | CON1C=C2C=Nc3c(ncc(-c4ccccc4)c3N)N2C1 [Example 15, 4-amino-8-methoxy-3-phenyl-imidazo[1,5-a]pyrido[3,2-e]pyrazine] |  |
| 111 to 113 | CCCN1CC(C)=C(NC)C2=C1N1CN(OC)C=C1C=N2 [Example 16, 4-(N-methyl-amino)-8-methoxy-3-methyl-1-propyl-imidazo[1,5-a]pyrido[3,2-e]pyrazine] |  |
| 140 to 142 | CCCN1CC(C)=C(NCC)C2=C1N1CN(OC)C=C1C=N2 [Example 17, 4-(N-ethyl-amino)-8-methoxy-3-methyl-1-propyl-imidazo[1,5-a]pyrido[3,2-e]pyrazine] |  |
| 93 to 95 | CCN1CC(C)=C(NC2CCCC2)C2=C1N1CN(OC)C=C1C=N2 [Example 22, 4-(N-cyclopentyl-amino)-1-ethyl-8-methoxy-3-methyl-imidazo[1,5-a]pyrido[3,2-e]pyrazine] |  |
| 77 to 80 | CCCN1CC(C)=C(NC2CCCC2)C2=C1N1CN(OC)C=C1C=N2 [Example 23, 4-(N-cyclopentyl-amino)-8-methoxy-3-methyl-1-propyl-imidazo[1,5-a]pyrido[3,2-e]pyrazine] |  |
| 132 to 133 | CCN1CC(C)=C(N2CCOCC2)C2=C1N1CN(OC)C=C1C=N2 [Example 24, 1-ethyl-8-methoxy-3-methyl-4-morpholino-imidazo[1,5-a]pyrido[3,2-e]pyrazine] |  |
| 218 to 220 | CCCN1CC(C)=C(n2ccnn2)C2=C1N1CN(OC)C=C1C=N2 [Example 32, 8-methoxy-3-methyl-1-propyl-4-(1,2,3-triazol-1-yl)-imidazo[1,5-a]pyrido[3,2-e]pyrazine] |  |
| 135 to 136 | CCN1CC(C)=C(N(C(C)=O)C(C)=O)C2=C1N1CN(OC)C=C1C=N2 [Example 41, 4-(N,N-diacetyl-amino)-1-ethyl-8-methoxy-3-methyl-imidazo[1,5-a]pyrido[3,2-e]pyrazine] |  |
